Data on one substance can be found in US20190284536A1, “EPITHELIAL TUMOR CELL CULTURES” (Beijing Percans Oncology Co., Ltd., priority 2016, published 2019).

The experiment has as its system human epithelial tumor cells. Particulars: DMEM/F12 based culture medium supplemented with BSA vs without; FIG. 10. As to the method: DF12: DMEM/F12 based culture medium. DF12+BSA: DMEM/12 based culture medium supplemented with BSA. Cell proliferation was measured by EdU incorporation. Error bars represent standard deviation (SD).

As for bovine serum albumin [BSA], the “growth of human epithelial tumor cells (cell proliferation by EdU incorporation)” value is “supports the growth”.
